Values of other authors in patent publication US10548835B2, “Methods of reducing the signs of skin aging” (Kimberly-Clark Worldwide, Inc., priority 2014, dated 2020).

System: 3T3-L1 cells
Conditions: literature

In the case of Fucoidan, the “adipogenesis (adipocyte differentiation)” value is listed as “inhibit adipogenesis”.
